Read-outs that look alike come from different tables or passages of the source.
Experiments:
5HT2A receptor [1] = biological target: T1, 5HT2A receptor (Homo sapiens, UniProt P28223); experiment: biochemical; assay type: binding; design: expressed in transfected cells; crude membranes
5HT2A receptor [2] = biological target: T1, 5HT2A receptor; experiment: cell-based; design: expressed in transfected cells; host or cells: HEK293T cells, transient co-transfection; conditions: BRET1 beta-arrestin2 recruitment; for Emax: HEK-293T, normalized to 5-HT, read-out: 5HT2A β-Arr Emax (%)
5HT2A receptor [3] = biological target: T1, 5HT2A receptor; experiment: cell-based; design: expressed in transfected cells; host or cells: HEK293T cells, transient co-transfection; conditions: BRET2 Gαq dissociation; for Emax: HEK-293T, normalized to 5-HT
[4] = secondary radioligand binding, Ki from IC50 by Cheng-Prusoff, read-out: 5HT2A Ki
[5] = HEK293T cells, read-out: 5HT2A β-Arr EC50
[6] = HEK293T cells, read-out: 5HT2A Gq EC50
[7] = HEK293T cells, read-out: 5HT2A Gq Emax (%)
[8] = 5HT2A Ki (nM), secondary radioligand binding, Ki from IC50 by Cheng-Prusoff
[9] = 5HT2A β-Arr EC50 (nM), HEK293T cells
[10] = 5HT2A Gq EC50 (nM), HEK293T cells
[11] = 5HT2A Ki (nM), secondary binding assay, Cheng-Prusoff
[12] = HEK293T, read-out: 5HTA Gq Emax (%)
[13] = HEK293T, read-out: 5HT2A β-Arr EC50
[14] = HEK293T, read-out: 5HTA Gq EC50

T1 sequence (P28223 whole entry): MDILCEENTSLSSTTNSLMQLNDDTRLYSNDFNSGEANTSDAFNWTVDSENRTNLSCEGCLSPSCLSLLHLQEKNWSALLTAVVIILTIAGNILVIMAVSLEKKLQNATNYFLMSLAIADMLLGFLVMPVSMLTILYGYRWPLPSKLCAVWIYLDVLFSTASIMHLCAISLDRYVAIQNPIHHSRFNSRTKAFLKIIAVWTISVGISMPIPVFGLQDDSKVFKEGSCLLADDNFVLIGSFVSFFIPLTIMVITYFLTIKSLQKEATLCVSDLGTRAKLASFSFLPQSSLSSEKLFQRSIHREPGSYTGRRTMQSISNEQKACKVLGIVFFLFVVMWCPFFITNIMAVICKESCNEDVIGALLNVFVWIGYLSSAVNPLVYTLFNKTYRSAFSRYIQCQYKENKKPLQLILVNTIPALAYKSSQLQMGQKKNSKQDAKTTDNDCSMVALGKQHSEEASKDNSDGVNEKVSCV

| SMILES | Emax (5HT2A receptor [2]; HEK293T cells) [%] | EC50 (5HT2A receptor [3]; [6]) [nM] | Emax (5HT2A receptor [3]; [7]) [%] | Ki (5HT2A receptor [1]; [11]) [nM] | EC50 (5HT2A receptor [2]; 5HT2A β-Arr EC50 (nM), HEK293T) [nM] | Emax (5HT2A receptor [2]; HEK293T) [%] | Emax (5HT2A receptor [3]; [12]) [%] | also measured |
| --- | --- | --- | --- | --- | --- | --- | --- | --- |
| Fc1ccc2c(C3=CCCNC3)n[nH]c2c1 [Example 78, 6-fluoro-3-(1,2,5,6-tetrahydropyridin-3-yl)-1H-indazole] | 59.4 | 11.5 | 79.4 | – | – | – | – | Ki (5HT2A receptor [1]; [4]): 57.6 nM; EC50 (5HT2A receptor [2]; [5]): 115 nM |
| Fc1cnc2[nH]cc(C3=CCCNC3)c2c1 [Example 120, 5-fluoro-3-(1,2,5,6-tetrahydropyridin-3-yl)-1H-pyrrolo[2,3-b]pyridine] | 60.4 | – | 100 | – | – | – | – | Ki (5HT2A receptor [1]; [8]): 53.6 nM; EC50 (5HT2A receptor [2]; [9]): 67.4 nM; EC50 (5HT2A receptor [3]; [10]): 21.5 nM |
| Fc1cccc2c(C34CNCC3C4)n[nH]c12 (stereo not drawn) [Example 187, 3-(3-azabicyclo[3.1.0]hexan-1-yl)-7-fluoro-1H-indazole] | – | – | – | 699 | 648 | 35 | 71.6 | EC50 (5HT2A receptor [3]; 5HTA Gq EC50 (nM), HEK293T): 136 nM |
| Cc1ccnc2c(C3=CCCN(C)C3)c[nH]c12 [Example 137, 7-methyl-3-(1-methyl-1,2,5,6-tetrahydropyridin-3-yl)-1H-pyrrolo[3,2-b]pyridine] | – | – | – | 531 | 372 | 44.6 | 74.4 | EC50 (5HT2A receptor [3]; 5HTA Gq EC50 (nM), HEK293T): 57.6 nM |
| Clc1cccc2c(C3=CCCNC3)n[nH]c12 [Example 89, 7-chloro-3-(1,2,5,6-tetrahydropyridin-3-yl)-1H-indazole] | 85.1 | 11.4 | 93.7 | – | – | – | – | Ki (5HT2A receptor [1]; [4]): 85.2 nM; EC50 (5HT2A receptor [2]; [5]): 83.5 nM |
| CN1CCC=C(c2n[nH]c3cc(F)ccc23)C1 [Example 95, 6-fluoro-3-(1-methyl-1,2,5,6-tetrahydropyridin-3-yl)-1H-indazole] | 27 | 21.1 | 47.1 | – | – | – | – | Ki (5HT2A receptor [1]; [4]): 47.3 nM; EC50 (5HT2A receptor [2]; [5]): 467 nM |
| COC1(c2c[nH]c3c(Cl)cccc23)CNC1 [Example 254, 7-chloro-3-(3-methoxyazetidin-3-yl)-1H-indole] | – | – | – | 1080 | 1460 | 77.6 | 88.3 | EC50 (5HT2A receptor [3]; 5HTA Gq EC50 (nM), HEK293T): 294 nM |
| C#CCN1CCC=C(c2n[nH]c3c(Cl)cccc23)C1 [Example 125, 7-chloro-3-(1-(prop-2-yn-1-yl)-1,2,5,6-tetrahydropyridin-3-yl)-1H-indazole] | 63.3 | 75 | 93.5 | – | – | – | – | Ki (5HT2A receptor [1]; [8]): 1970 nM; EC50 (5HT2A receptor [2]; [9]): 291 nM |
| Fc1cccc2c(C34CCNCC3C4)n[nH]c12 (stereo not drawn) [Example 229, 3-(3-azabicyclo[4.1.0]heptan-6-yl)-7-fluoro-1H-indazole] | – | – | – | 1900 | 2070 | 90.2 | 83.7 | EC50 (5HT2A receptor [3]; 5HTA Gq EC50 (nM), HEK293T): 236 nM |
| CN1CCC=C(c2c[nH]c3c(Cl)cccc23)C1 [Example 44, 7-chloro-3-(1-methyl-1,2,5,6-tetrahydropyridin-3-yl)-1H-indole] | 37.6 | 18.9 | 86.6 | – | – | – | – | Ki (5HT2A receptor [1]; [4]): 76.3 nM; EC50 (5HT2A receptor [2]; [5]): 78.8 nM |
| COc1cccc2[nH]cc(C3=CCCNC3)c12 [Example 18, 4-methoxy-3-(1,2,5,6-tetrahydropyridin-3-yl)-1H-indole] | 51.8 | 3.9 | 96.1 | – | – | – | – | Ki (5HT2A receptor [1]; [4]): 50.5 nM; EC50 (5HT2A receptor [2]; [5]): 71.2 nM |
| Cc1cccc2c(C3=CCCN(Cc4ccccc4)C3)c[nH]c12 [Example 68, 3-(1-benzyl-1,2,5,6-tetrahydropyridin-3-yl)-7-methyl-1H-indole] | 42.4 | – | 40.2 | – | – | – | – | Ki (5HT2A receptor [1]; [8]): 115 nM; EC50 (5HT2A receptor [2]; [9]): 490 nM; EC50 (5HT2A receptor [3]; [10]): 127 nM |
| Cc1cccc2[nH]cc(C3=CCCNC3)c12 [Example 17, 4-methyl-3-(1,2,5,6-tetrahydropyridin-3-yl)-1H-indole] | 42 | 22 | 85.7 | – | – | – | – | Ki (5HT2A receptor [1]; [4]): 11.5 nM; EC50 (5HT2A receptor [2]; [5]): 147 nM |
| CN1CCC=C(c2n[nH]c3c(Cl)cc(F)cc23)C1 [Example 130, 7-chloro-5-fluoro-3-(1-methyl-1,2,5,6-tetrahydropyridin-3-yl)-1H-indazole] | – | – | – | – | – | 88.5 | 91.4 | Ki (5HT2A receptor [1]; secondary binding assay, Cheng-Prusoff, read-out: 5HT2A Ki): 19.5 nM; EC50 (5HT2A receptor [2]; [13]): 165 nM; EC50 (5HT2A receptor [3]; [14]): 12.9 nM |
| CCCN1CCC=C(c2n[nH]c3cccc(C#N)c23)C1 [Example 175, 3-(1-propyl-1,2,5,6-tetrahydropyridin-3-yl)-1H-indazole-4-carbonitrile] | – | – | – | 8250 | 343 | 31.6 | 46.3 | EC50 (5HT2A receptor [3]; [14]): 88.8 nM |
| Clc1cccc2c(C3=CC4CCC(C3)N4)n[nH]c12 (stereo not drawn) [Example 221, 3-(8-azabicyclo[3.2.1]oct-2-en-3-yl)-7-chloro-1H-indazole] | – | – | – | 1400 | 1320 | 66.9 | 59.3 | EC50 (5HT2A receptor [3]; 5HTA Gq EC50 (nM), HEK293T): 108 nM |
| Clc1cccc2c(C3=CCNC3)n[nH]c12 [Example 206, 7-chloro-3-(2,5-dihydro-1H-pyrrol-3-yl)-1H-indazole] | – | – | – | 272 | – | 108 | 117 | EC50 (5HT2A receptor [2]; [13]): 44.8 nM; EC50 (5HT2A receptor [3]; [14]): 14.4 nM |
| COc1ccc2[nH]nc(C3=CCCN(C)C3)c2c1 [Example 104, 5-methoxy-3-(1-methyl-1,2,5,6-tetrahydropyridin-3-yl)-1H-indazole] | 83.7 | 82.8 | 88.2 | – | – | – | – | Ki (5HT2A receptor [1]; [8]): 501 nM; EC50 (5HT2A receptor [2]; [9]): 681 nM |
| CN1CCC=C(c2n[nH]c3cccc(C#N)c23)C1 [Example 99, 3-(1-methyl-1,2,5,6-tetrahydropyridin-3-yl)-1H-indazole-4-carbonitrile] | 43.8 | 96.4 | 80 | – | – | – | – | Ki (5HT2A receptor [1]; [8]): 491 nM; EC50 (5HT2A receptor [2]; [9]): 1010 nM |
| FC(F)(F)CCN1CCC=C(c2n[nH]c3c(Cl)cccc23)C1 [Example 164, 7-chloro-3-(1-(3,3,3-trifluoropropyl)-1,2,5,6-tetrahydropyridin-3-yl)-1H-indazole] | – | – | – | > 10000 | 836 | 23.3 | 52.9 | EC50 (5HT2A receptor [3]; 5HTA Gq EC50 (nM), HEK293T): 518 nM |
| CC(C)c1ccc2[nH]cc(C3=CCCNC3)c2c1 [Example 23, 5-isopropyl-3-(1,2,5,6-tetrahydropyridin-3-yl)-1H-indole] | 31.4 | 65.7 | 58.8 | – | – | – | – | Ki (5HT2A receptor [1]; [4]): 98.6 nM; EC50 (5HT2A receptor [2]; [5]): 735 nM |
| Fc1cc(Cl)c2[nH]nc(C34CNCC3C4)c2c1 (stereo not drawn) [Example 185, 3-(3-azabicyclo[3.1.0]hexan-1-yl)-7-chloro-5-fluoro-1H-indazole] | – | – | – | 6740 | 542 | 46.1 | 78.1 | EC50 (5HT2A receptor [3]; 5HTA Gq EC50 (nM), HEK293T): 290 nM |
| CCCN1CCC=C(c2c[nH]c3c(C)cccc23)C1 [Example 155, 7-methyl-3-(1-propyl-1,2,5,6-tetrahydropyridin-3-yl)-1H-indole] | – | – | – | 539 | 532 | 34.4 | 68.5 | EC50 (5HT2A receptor [3]; [14]): 29.5 nM |
| Fc1cc(Cl)c2[nH]nc(C3=CCCNC3)c2c1 [Example 129, 7-chloro-5-fluoro-3-(1,2,5,6-tetrahydropyridin-3-yl)-1H-indazole] | – | – | – | 162 | – | 95 | 88.8 | EC50 (5HT2A receptor [2]; [13]): 20.1 nM; EC50 (5HT2A receptor [3]; [14]): 3.1 nM |
| Cc1cccc2[nH]cc(C3=CCCN(C)C3)c12 [Example 19, 4-methyl-3-(1-methyl-1,2,5,6-tetrahydropyridin-3-yl)-1H-indole] | 40.4 | 9 | 75.9 | – | – | – | – | Ki (5HT2A receptor [1]; [8]): 136 nM; EC50 (5HT2A receptor [2]; [9]): 102 nM |
| Fc1cccc2c(C3=CCCNC3)n[nH]c12 [Example 90, 7-fluoro-3-(1,2,5,6-tetrahydropyridin-3-yl)-1H-indazole] | 70 | 9.2 | 95.6 | – | – | – | – | Ki (5HT2A receptor [1]; [8]): 1390 nM; EC50 (5HT2A receptor [2]; [5]): 86 nM |
| CC(C)N1CC=C(c2n[nH]c3c(Cl)cccc23)C1 [Example 219, 7-chloro-3-(1-isopropyl-2,5-dihydro-1H-pyrrol-3-yl)-1H-indazole] | – | – | – | 313 | 537 | 71.9 | 55.5 | EC50 (5HT2A receptor [3]; [14]): 25.5 nM |
| CCc1[nH]c2ccccc2c1C1=CCCNC1 [Example 62, 2-ethyl-3-(1,2,5,6-tetrahydropyridin-3-yl)-1H-indole] | 45.1 | 75.7 | 49.1 | – | – | – | – | Ki (5HT2A receptor [1]; [8]): 810 nM; EC50 (5HT2A receptor [2]; [9]): 633 nM |
| Cc1cccc2c(C34CCNCC3C4)n[nH]c12 (stereo not drawn) [Example 226, 3-(3-azabicyclo[4.1.0]heptan-6-yl)-7-methyl-1H-indazole] | – | – | – | 4630 | 2000 | 52.1 | 91 | EC50 (5HT2A receptor [3]; 5HTA Gq EC50 (nM), HEK293T): 1350 nM |
| CCN1CCC=C(c2n[nH]c3c(Cl)cccc23)C1 [Example 145, 7-chloro-3-(1-ethyl-1,2,5,6-tetrahydropyridin-3-yl)-1H-indazole] | – | – | – | 123 | – | 42.4 | 64.4 | EC50 (5HT2A receptor [2]; [13]): 77 nM; EC50 (5HT2A receptor [3]; [14]): 23.3 nM |

Reference: patent US20260265246A1 (ICAHN SCHOOL OF MEDICINE AT MOUNT SINAI, priority 2021, published 2026)
